Test results reported in ChEMBL document CHEMBL5724806, “Unraveling interindividual differences and functional consequences of gut microbial metabolism of immunosuppressants” (2024).

How the values were obtained:
Assay type in all cases: ADME
[1] = (§1) The drug is tested on Actinomyces naeslundi strain: DSM43013 for biotransformation under anaerobic condition. The drug concentrations were measured over 6 timepoints collected between 0 and 12 hours of incubation by liquid-chromatography-coupled mass spectrometry (LC–MS); set-up: dose 5 uM, timepoint 0, 1.5, 3, 6, 9, 12 hours; details: actinomyces naeslundii, 5 µM
[2] = The drug is tested on Bifidobacterium longum strain: DSM20088 for biotransformation under anaerobic condition. The drug concentrations were measured over 6 timepoints collected between 0 and 12 hours of incubation by liquid-chromatography-coupled mass spectrometry (LC–MS); set-up: dose 5 uM, timepoint 0, 1.5, 3, 6, 9, 12 hours; details: 5 µM
[3] = The drug is tested on Collinsella aerofaciens strain: DSM3979 for biotransformation under anaerobic condition. The drug concentrations were measured over 6 timepoints collected between 0 and 12 hours of incubation by liquid-chromatography-coupled mass spectrometry (LC–MS); set-up: dose 5 uM, timepoint 0, 1.5, 3, 6, 9, 12 hours; details: 5 µM
[4] = The drug is tested on Bacteroides ovatus strain: ATCC 8483 for biotransformation under anaerobic condition. The drug concentrations were measured over 6 timepoints collected between 0 and 12 hours of incubation by liquid-chromatography-coupled mass spectrometry (LC–MS); set-up: dose 5 uM, timepoint 0, 1.5, 3, 6, 9, 12 hours; details: 5 µM
[5] = The drug is tested on Bacteroides stercoris strain: HM 1036 for biotransformation under anaerobic condition. The drug concentrations were measured over 6 timepoints collected between 0 and 12 hours of incubation by liquid-chromatography-coupled mass spectrometry (LC–MS); set-up: dose 5 uM, timepoint 0, 1.5, 3, 6, 9, 12 hours; details: 5 µM
[6] = The drug is tested on Bacteroides thetaiotaomicron strain: DSM2079 for biotransformation under anaerobic condition. The drug concentrations were measured over 6 timepoints collected between 0 and 12 hours of incubation by liquid-chromatography-coupled mass spectrometry (LC–MS); set-up: dose 5 uM, timepoint 0, 1.5, 3, 6, 9, 12 hours; details: 5 µM
[7] = The drug is tested on Bacteroides vulgatus strain: DSM1447 for biotransformation under anaerobic condition. The drug concentrations were measured over 6 timepoints collected between 0 and 12 hours of incubation by liquid-chromatography-coupled mass spectrometry (LC–MS); set-up: dose 5 uM, timepoint 0, 1.5, 3, 6, 9, 12 hours; details: phocaeicola vulgatus, 5 µM
[8] = The drug is tested on Odoribacter splanchnicus strain: DSM20712 for biotransformation under anaerobic condition. The drug concentrations were measured over 6 timepoints collected between 0 and 12 hours of incubation by liquid-chromatography-coupled mass spectrometry (LC–MS); set-up: dose 5 uM, timepoint 0, 1.5, 3, 6, 9, 12 hours; details: 5 µM
[9] = The drug is tested on Clostridium bolteae strain: DSM15670 for biotransformation under anaerobic condition. The drug concentrations were measured over 6 timepoints collected between 0 and 12 hours of incubation by liquid-chromatography-coupled mass spectrometry (LC–MS); set-up: dose 5 uM, timepoint 0, 1.5, 3, 6, 9, 12 hours; details: enterocloster bolteae, 5 µM
[10] = The drug is tested on Coprococcus comes strain: ATCC27758 for biotransformation under anaerobic condition. The drug concentrations were measured over 6 timepoints collected between 0 and 12 hours of incubation by liquid-chromatography-coupled mass spectrometry (LC–MS); set-up: dose 5 uM, timepoint 0, 1.5, 3, 6, 9, 12 hours; details: 5 µM
[11] = The drug is tested on Roseburia intestinalis strain: DSM14610 for biotransformation under anaerobic condition. The drug concentrations were measured over 6 timepoints collected between 0 and 12 hours of incubation by liquid-chromatography-coupled mass spectrometry (LC–MS); set-up: dose 5 uM, timepoint 0, 1.5, 3, 6, 9, 12 hours; details: 5 µM
[12] = The drug is tested on Ruminococcus gnavus strain: ATCC29149 for biotransformation under anaerobic condition. The drug concentrations were measured over 6 timepoints collected between 0 and 12 hours of incubation by liquid-chromatography-coupled mass spectrometry (LC–MS); set-up: dose 5 uM, timepoint 0, 1.5, 3, 6, 9, 12 hours; details: mediterraneibacter gnavus, 5 µM
[13] = The drug is tested on Streptococcus mitis strain: DSM12643 for biotransformation under anaerobic condition. The drug concentrations were measured over 6 timepoints collected between 0 and 12 hours of incubation by liquid-chromatography-coupled mass spectrometry (LC–MS); set-up: dose 5 uM, timepoint 0, 1.5, 3, 6, 9, 12 hours; details: 5 µM
[14] = The drug is tested on Escherichia coli strain: DSM27469 for biotransformation under anaerobic condition. The drug concentrations were measured over 6 timepoints collected between 0 and 12 hours of incubation by liquid-chromatography-coupled mass spectrometry (LC–MS); set-up: dose 5 uM, timepoint 0, 1.5, 3, 6, 9, 12 hours; details: 5 µM
[15] = (§2) The drug is tested on Alloscardovia omnicolens strain: DSM21503 for biotransformation under microaerobic condition. The drug concentrations were measured over 6 timepoints collected between 0 and 12 hours of incubation by liquid-chromatography-coupled mass spectrometry (LC–MS); set-up: dose 5 uM, timepoint 0, 1.5, 3, 6, 9, 12 hours; details: 5 µM
[16] = The drug is tested on Bifidobacterium longum strain: DSM20088 for biotransformation under microaerobic condition. The drug concentrations were measured over 6 timepoints collected between 0 and 12 hours of incubation by liquid-chromatography-coupled mass spectrometry (LC–MS); set-up: dose 5 uM, timepoint 0, 1.5, 3, 6, 9, 12 hours; details: 5 µM
[17] = The drug is tested on Gemella morbillorum strain: DSM20572 for biotransformation under microaerobic condition. The drug concentrations were measured over 6 timepoints collected between 0 and 12 hours of incubation by liquid-chromatography-coupled mass spectrometry (LC–MS); set-up: dose 5 uM, timepoint 0, 1.5, 3, 6, 9, 12 hours; details: 5 µM
[18] = The drug is tested on Enterococcus faecalis strain: ATCC29212 for biotransformation under microaerobic condition. The drug concentrations were measured over 6 timepoints collected between 0 and 12 hours of incubation by liquid-chromatography-coupled mass spectrometry (LC–MS); set-up: dose 5 uM, timepoint 0, 1.5, 3, 6, 9, 12 hours; details: 5 µM
[19] = as §1, with “the gut metagenome community of A-03 with ENA study accession number: PRJEB31790” for “Actinomyces naeslundi strain: DSM43013”, “7” for “6”; set-up: dose 5 uM, timepoint 0, 0.75, 1.5, 3, 6, 9, 12 hours; details: 5 µM
[20] = as §1, with “the gut metagenome community of A-04 with ENA study accession number: PRJEB31790” for “Actinomyces naeslundi strain: DSM43013”, “7” for “6”; set-up: dose 5 uM, timepoint 0, 0.75, 1.5, 3, 6, 9, 12 hours; details: 5 µM
[21] = as §1, with “the gut metagenome community of A-08 with ENA study accession number: PRJEB31790” for “Actinomyces naeslundi strain: DSM43013”, “7” for “6”; set-up: dose 5 uM, timepoint 0, 0.75, 1.5, 3, 6, 9, 12 hours; details: 5 µM
[22] = as §1, with “the gut metagenome community of P-03 with ENA study accession number: PRJEB31790” for “Actinomyces naeslundi strain: DSM43013”, “7” for “6”; set-up: dose 5 uM, timepoint 0, 0.75, 1.5, 3, 6, 9, 12 hours; details: 5 µM
[23] = as §1, with “the gut metagenome community of T-01 with ENA study accession number: PRJEB31790” for “Actinomyces naeslundi strain: DSM43013”, “7” for “6”; set-up: dose 5 uM, timepoint 0, 0.75, 1.5, 3, 6, 9, 12 hours; details: 5 µM
[24] = as §2, with “the gut metagenome community of A-02 with ENA study accession number: PRJEB31790” for “Alloscardovia omnicolens strain: DSM21503”, “7” for “6”; set-up: dose 5 uM, timepoint 0, 0.75, 1.5, 3, 6, 9, 12 hours; details: 5 µM
[25] = as §2, with “the gut metagenome community of A-04 with ENA study accession number: PRJEB31790” for “Alloscardovia omnicolens strain: DSM21503”, “7” for “6”; set-up: dose 5 uM, timepoint 0, 0.75, 1.5, 3, 6, 9, 12 hours; details: 5 µM
[26] = as §2, with “the gut metagenome community of A-07 with ENA study accession number: PRJEB31790” for “Alloscardovia omnicolens strain: DSM21503”, “7” for “6”; set-up: dose 5 uM, timepoint 0, 0.75, 1.5, 3, 6, 9, 12 hours; details: 5 µM
[27] = as §2, with “the gut metagenome community of P-02 with ENA study accession number: PRJEB31790” for “Alloscardovia omnicolens strain: DSM21503”, “7” for “6”; set-up: dose 5 uM, timepoint 0, 0.75, 1.5, 3, 6, 9, 12 hours; details: 5 µM
[28] = as §2, with “the gut metagenome community of T-01 with ENA study accession number: PRJEB31790” for “Alloscardovia omnicolens strain: DSM21503”, “7” for “6”; set-up: dose 5 uM, timepoint 0, 0.75, 1.5, 3, 6, 9, 12 hours; details: 5 µM
[29] = as §2, with “the gut metagenome community of T-03 with ENA study accession number: PRJEB31790” for “Alloscardovia omnicolens strain: DSM21503”, “7” for “6”; set-up: dose 5 uM, timepoint 0, 0.75, 1.5, 3, 6, 9, 12 hours; details: 5 µM
[30] = as §2, with “the gut metagenome community of T-04 with ENA study accession number: PRJEB31790” for “Alloscardovia omnicolens strain: DSM21503”, “7” for “6”; set-up: dose 5 uM, timepoint 0, 0.75, 1.5, 3, 6, 9, 12 hours; details: 5 µM

| Structure (SMILES) | Bacterial Biotransformation [1] | Bacterial Biotransformation [2] | Bacterial Biotransformation [3] | Bacterial Biotransformation [4] | Bacterial Biotransformation [5] | Bacterial Biotransformation [6] | Bacterial Biotransformation [7] | Bacterial Biotransformation [8] | Bacterial Biotransformation [9] | Bacterial Biotransformation [10] | Bacterial Biotransformation [11] | Bacterial Biotransformation [12] | Bacterial Biotransformation [13] | Bacterial Biotransformation [14] | Bacterial Biotransformation [15] | Bacterial Biotransformation [16] | Bacterial Biotransformation [17] | Bacterial Biotransformation [18] | Bacterial Biotransformation [19] | Bacterial Biotransformation [20] | other results |
| --- | --- | --- | --- | --- | --- | --- | --- | --- | --- | --- | --- | --- | --- | --- | --- | --- | --- | --- | --- | --- | --- |
| C[C@]12C=CC(=O)C=C1CC[C@@H]1[C@@H]2C(=O)C[C@@]2(C)[C@H]1CC[C@]2(O)C(=O)CO [PREDNISONE] | Compound NOT metabolized | Compound NOT metabolized | Compound NOT metabolized | Compound NOT metabolized | Compound NOT metabolized | Compound NOT metabolized | Compound NOT metabolized | Compound NOT metabolized | Compound NOT metabolized | Compound NOT metabolized | Compound NOT metabolized | Compound metabolized | Compound NOT metabolized | Compound NOT metabolized | Compound NOT metabolized | Compound NOT metabolized | Compound NOT metabolized | Compound NOT metabolized | Compound metabolized | Compound metabolized | Bacterial Biotransformation [21]: Compound metabolized; Bacterial Biotransformation [22]: Compound metabolized; Bacterial Biotransformation [23]: Compound metabolized; Bacterial Biotransformation [24]: Compound metabolized; Bacterial Biotransformation [25]: Compound metabolized; Bacterial Biotransformation [26]: Compound metabolized; Bacterial Biotransformation [27]: Compound metabolized; Bacterial Biotransformation [28]: Compound metabolized; Bacterial Biotransformation [29]: Compound NOT metabolized; Bacterial Biotransformation [30]: Compound NOT metabolized |
| NS(=O)(=O)c1cc(C(=O)O)c(NCc2ccco2)cc1Cl [FUROSEMIDE] | Compound NOT metabolized | Compound NOT metabolized | Compound NOT metabolized | Compound NOT metabolized | Compound NOT metabolized | Compound NOT metabolized | Compound NOT metabolized | Compound NOT metabolized | Compound NOT metabolized | Compound NOT metabolized | Compound NOT metabolized | Compound NOT metabolized | Compound NOT metabolized | Compound NOT metabolized | Compound NOT metabolized | Compound NOT metabolized | Compound NOT metabolized | Compound NOT metabolized | Compound NOT metabolized | Compound NOT metabolized | Bacterial Biotransformation [21]: Compound NOT metabolized; Bacterial Biotransformation [22]: Compound NOT metabolized; Bacterial Biotransformation [23]: Compound NOT metabolized; Bacterial Biotransformation [24]: Compound NOT metabolized; Bacterial Biotransformation [25]: Compound NOT metabolized; Bacterial Biotransformation [26]: Compound NOT metabolized; Bacterial Biotransformation [27]: Compound NOT metabolized; Bacterial Biotransformation [28]: Compound NOT metabolized; Bacterial Biotransformation [29]: Compound NOT metabolized; Bacterial Biotransformation [30]: Compound NOT metabolized |
